This experiment has as its system milk-induced eosinophilia and leukocytosis. Kind of experiment: Milk-induced eosinophilia and leukocytosis in mice. The experiment is classed as in vivo, Swiss albino mice. To be noted: for Eosinophil (mean ± SD), post-treatment / Total leucocyte count (mean ± SD), post-treatment: 24 h after dosing, p.o. 1 h before boiled and cooled milk 4 ml/kg s.c., polyherbal extract 307 mg/kg, levocetirizine 0.9 mg/kg, fexofenadine 21 mg/kg; for Eosinophil (mean ± SD), pre-treatment / Total leucocyte count (mean ± SD), pre-treatment: before treatment, 6 mice/group. How it is done: The composition of the present invention was assessed using milk-induced cosinophilia and leukocytosis animal model to evaluate the anti-inflammatory activity.
Injection of milk into mice induces allergy response which in turn causes leucocytosis. Leukocytosis is the condition of having a high number of leukocytes in the blood. Leukocytes are white blood cells. Leukocytosis may be a temporary response to an allergy, infection or an injury as the body is healing naturally, or it can be a sign of disease.
Study was conducted to check the effect of extracts on milk-induced eosinophilia and leukocytosis in mice, by determining the count of eosinophils and leukocytes. For this model, 54 Swiss albino mice weighing in the range of 20-25 gm were used and divided in nine groups (6 mice/group). The eosinophils and leukocyte count was checked before and after treatment i.e. 24 hours after dosing with polyherbal formulation and standard drugs.
All the animals were maintained in the animal house under standard conditions: temperature (24±1° C.), relative humidity (45-55%), light (12 h) and dark (12 h) cycle, and were allowed free access to food and water ad libitum. After one-week acclimatization in the animal house, the animals were used for the experiments.
Polyherbal extract containing Nigella sativa 88 mg/kg, Tinospora cordifolia 158 mg/kg, Petasites hybridus 26 mg/kg and Perilla frutescens 35 mg/kg was suspended in carboxy methyl cellulose. The suspension thus contained 307 mg/kg of the extract.
Similarly, standard drugs levocetirizine and fexofenadine were prepared as per requirement
The treatment of polyherbal extract and standard drug formulation were given orally 1 hour prior to injection of boiled and cooled milk. After 24 hours, blood samples were collected from retro orbital plexus, under ketamine xylazine anesthesia. Total eosinophil and differential leukocyte count per cu·mm was anlysed using hematology analyzer before and after treatment.

In the case of `O=C(O)COCCN1CCN([C@H](c2ccccc2)c2ccc(Cl)cc2)CC1` [Levocetirizine], the “Eosinophil (mean ± SD), post-treatment” value is on record as 0.167 ± 0.082 10^3/μL; the “Total leucocyte count (mean ± SD), post-treatment” value is listed as 6.950 ± 1.089 10^3/μL; the “Eosinophil (mean ± SD), pre-treatment” value was 0.18 ± 0.08 10^3/μL; the “Total leucocyte count (mean ± SD), pre-treatment” value was 6.95 ± 1.57 10^3/μL.
For `CC(C)(C(=O)O)c1ccc(C(O)CCCN2CCC(C(O)(c3ccccc3)c3ccccc3)CC2)cc1` (centres unmarked) [Fexofenadine], the “Eosinophil (mean ± SD), post-treatment” value is listed as 0.183 ± 0.075 10^3/μL; the “Total leucocyte count (mean ± SD), post-treatment” value is 6.917 ± 0.436 10^3/μL; the “Eosinophil (mean ± SD), pre-treatment” value is recorded as 0.17 ± 0.08 10^3/μL; the “Total leucocyte count (mean ± SD), pre-treatment” value is 7.87 ± 0.72 10^3/μL.

Source of the values: patent US20260021154A1, “HERBAL ANTI-INFAMMATORY COMPOSITION” (CIRA HERBALS LLP, priority 2022, published 2026).
